# Results taken from ChEMBL document CHEMBL4823319, “Design, synthesis, and biological evaluation of potent 1,2,3,4-tetrahydroisoquinoline derivatives as anticancer agents targeting NF-κB signaling pathway” (Bioorg Med Chem, 2021).
# The source made the active and inactive calls. The rule behind the calls is not given here.
# Columns and labels:
# [1] = tested on: NUGC-3; experiment: Anticancer activity against human […] cells assessed as growth inhibition incubated for 48 hrs by sulforhodamine B method; type: functional
# [2] = tested on: ACHN; experiment: Anticancer activity against human […] cells assessed as growth inhibition incubated for 48 hrs by sulforhodamine B method; type: functional
# [3] = tested on: NCI-H23; experiment: Anticancer activity against human NCI-H23 cells assessed as growth inhibition incubated for 48 hrs by sulforhodamine B method; type: functional
# [4] = tested on: HCT-15; experiment: Anticancer activity against human HCT-15 cells assessed as growth inhibition incubated for 48 hrs by sulforhodamine B method; type: functional
# [5] = tested on: MDA-MB-231; experiment: Anticancer activity against human MDA-MB-231 cells assessed as growth inhibition incubated for 48 hrs by sulforhodamine B method; type: functional
# [6] = tested on: PC-3; experiment: Anticancer activity against human PC-3 cells assessed as growth inhibition incubated for 48 hrs by sulforhodamine B method; type: functional
# [7] = Inhibition of NF-kappaB transcriptional activity in mouse RAW264.7 cells harbouring NF-kappaB-SEAP-NPT reporter plasmid assessed as reduction in LPS-induced SEAP expression incubated for 16 hr with LPS; type: cell-based
# [8] = tested on: MDA-MB-231; experiment: Inhibition of NF-kappaB in human MDA-MB-231 cells assessed as reduction in LPS-induced NF-kappaB nuclear translocation at 10 uM treated with LPS for 24 hrs by Western blotting analysis; type: cell-based
# [9] = tested on: MDA-MB-231; experiment: Inhibition of NF-kappaB in human MDA-MB-231 cells assessed as reduction in LPS-induced NF-kappaB nuclear translocation at 10 uM treated with LPS for 24 hrs by immunocytochemical analysis; type: cell-based
smiles,measurement,setting,value
O=C(Nc1cc(C(F)(F)F)cc(C(F)(F)F)c1)c1nccc2ccccc12,GI50,[1],> 10 µM
COc1ccccc1NC(=O)C1NCCc2ccccc21 (stereo unspecified),GI50,[1],> 10 µM
O=C(Nc1cccc(C(F)(F)F)c1)C1c2ccccc2CCN1C(=O)c1ccc(Cl)cc1 (stereo unspecified),GI50,[1],> 10 µM
O=C(Nc1ccccc1C(F)(F)F)C1c2ccccc2CCN1C(=O)c1ccc(Cl)cc1 (stereo unspecified),GI50,[1],> 10 µM
O=C(Nc1ccc(C(F)(F)F)cc1)c1nccc2ccccc12,GI50,[1],> 10 µM
O=C(Nc1ccc(O)cc1)C1NCCc2ccccc21 (stereo unspecified),GI50,[1],4.37 µM
same,GI50,[2],5.32 µM
same,GI50,[3],3.39 µM
same,GI50,[4],5.73 µM
same,GI50,[5],5.05 µM
same,GI50,[6],4.25 µM
COc1ccc(NC(=O)C2c3ccccc3CCN2C(=O)c2ccc(Cl)cc2)cc1 (stereo unspecified),GI50,[1],3.63 µM
same,GI50,[2],3.67 µM
same,GI50,[3],4.34 µM
same,GI50,[4],6.08 µM
same,GI50,[5],4.9 µM
same,GI50,[6],3.48 µM
O=C(Nc1ccccc1C(F)(F)F)C1NCCc2ccccc21 (stereo unspecified),GI50,[1],> 10 µM
O=C(Nc1ccccc1O)c1nccc2ccccc12,GI50,[1],> 10 µM
COc1cccc(NC(=O)C2NCCc3ccccc32)c1 (stereo unspecified),GI50,[1],> 10 µM
O=C(Nc1cccc(Cl)c1)c1nccc2ccccc12,GI50,[1],> 10 µM
O=C(Nc1cccc(C(F)(F)F)c1)C1NCCc2ccccc21 (stereo unspecified),GI50,[1],> 10 µM
O=C(Nc1ccccc1O)C1c2ccccc2CCN1C(=O)c1ccc(Cl)cc1 (stereo unspecified),GI50,[1],> 10 µM
O=C(Nc1ccc(C(F)(F)F)cc1)C1c2ccccc2CCN1C(=O)c1ccc(Cl)cc1 (stereo unspecified),GI50,[1],4.2 µM
same,GI50,[2],3.47 µM
same,GI50,[3],3.34 µM
same,GI50,[4],5.11 µM
same,GI50,[5],4.35 µM
same,GI50,[6],4.49 µM
O=C(Nc1ccc(C(F)(F)F)cc1)C1NCCc2ccccc21 (stereo unspecified),GI50,[1],4.22 µM
same,GI50,[2],5.2 µM
same,GI50,[3],4.4 µM
same,GI50,[4],5.44 µM
same,GI50,[5],4.74 µM
same,GI50,[6],6.59 µM
COc1cccc(NC(=O)C2c3ccccc3CCN2C(=O)c2ccc(Cl)cc2)c1 (stereo unspecified),GI50,[1],2.14 µM
same,GI50,[2],2.96 µM
same,GI50,[3],2.42 µM
same,GI50,[4],3.62 µM
same,GI50,[5],3.21 µM
same,GI50,[6],2.89 µM
O=C(Nc1ccccc1Cl)c1nccc2ccccc12,GI50,[1],> 10 µM
O=C(Nc1cccc(O)c1)c1nccc2ccccc12,GI50,[1],> 10 µM
COc1cc2c(cc1O)CCC(C(=O)Nc1ccccc1)O2 (stereo unspecified),IC50,[7],40.4 µM
COc1ccc(NC(=O)C2NCCc3ccccc32)cc1 (stereo unspecified),GI50,[1],> 10 µM
COc1ccccc1NC(=O)C1c2ccccc2CCN1C(=O)c1ccc(Cl)cc1 (stereo unspecified),GI50,[1],1.59 µM
same,GI50,[2],1.98 µM
same,GI50,[3],1.94 µM
same,GI50,[4],1.74 µM
same,GI50,[5],2.28 µM
same,GI50,[6],2.01 µM
same,inhibition,[8],Dose-Dependent Effect
same,inhibition,[9],Active
O=C(Nc1cc(C(F)(F)F)cc(C(F)(F)F)c1)C1c2ccccc2CCN1C(=O)c1ccc(Cl)cc1 (stereo unspecified),GI50,[1],2.83 µM
same,GI50,[2],2.65 µM
same,GI50,[3],2.02 µM
same,GI50,[4],3.52 µM
same,GI50,[5],2.71 µM
same,GI50,[6],2.56 µM
O=C(Nc1ccc(O)cc1)c1nccc2ccccc12,GI50,[1],> 10 µM
COc1cccc(NC(=O)c2nccc3ccccc23)c1,GI50,[1],> 10 µM
O=C(Nc1cccc(O)c1)C1c2ccccc2CCN1C(=O)c1ccc(Cl)cc1 (stereo unspecified),GI50,[1],> 10 µM
O=C(Nc1cc(C(F)(F)F)cc(C(F)(F)F)c1)C1NCCc2ccccc21 (stereo unspecified),GI50,[1],> 10 µM
COc1ccccc1NC(=O)c1nccc2ccccc12,GI50,[1],> 10 µM
COc1ccc(NC(=O)c2nccc3ccccc23)cc1,GI50,[1],> 10 µM
O=C(Nc1ccccc1O)C1NCCc2ccccc21 (stereo unspecified),GI50,[1],> 10 µM
O=C(Nc1ccccc1C(F)(F)F)c1nccc2ccccc12,GI50,[1],> 10 µM
O=C(Nc1cccc(C(F)(F)F)c1)c1nccc2ccccc12,GI50,[1],> 10 µM
COc1cccc2c1C(=O)c1c(O)c3c(c(O)c1C2=O)C[C@@](O)(C(=O)CO)C[C@@H]3O[C@H]1C[C@H](N)[C@H](O)[C@H](C)O1 [DOXORUBICIN],GI50,[2],0.088 µM
same,GI50,[3],0.072 µM
same,GI50,[4],0.076 µM
same,GI50,[5],0.086 µM
same,GI50,[6],0.09 µM
O=C(Nc1ccc(Cl)cc1)c1nccc2ccccc12,GI50,[1],> 10 µM
O=C(Nc1cccc(O)c1)C1NCCc2ccccc21 (stereo unspecified),GI50,[1],> 10 µM
O=C(Nc1ccc(O)cc1)C1c2ccccc2CCN1C(=O)c1ccc(Cl)cc1 (stereo unspecified),GI50,[1],> 10 µM
